Results: publication PMC12143354, “Determining sex differences in aortic valve myofibroblast responses to drug combinations identified using a digital medicine platform” (Science Advances, 2025)
Where two headings read alike, the source gives them in different places.

Key:
female VICs [1] = tested on: female VICs
Method: (§1) After culture on hydrogels or TCPS, the spent drug-containing media were removed, and VICs were immersed in a 4% paraformaldehyde solution in PBS for 20 min and then permeabilized for 1 hour with 0.1% Triton X-100 (Thermo Fisher Scientific) in PBS. Cells were then blocked with 5% bovine serum albumin in PBS for 1 hour at room temperature or over the weekend at 4°C. […] Last, VICs were washed once with PBS and then stored in PBS at 4°C until imaging. Gel samples were imaged in situ using a Nikon Eclipse Ti2-E and analyzed using an automated MATLAB code to quantify the αSMA gradient mean intensities and caspase-3 intensities normalized to cell mask for each cell. A minimum of 100 cells were used per gel with multiple gels used per condition.
(§2) Percent cytotoxicity was determined by designating each cell as alive or dead using caspase-3 intensity normalized to cell mask intensity, which was thresholded using a positive and negative control for cell death [10 nM staurosporine (Cell Signaling Technologies) or 1% FBS media]. The bottom value for every curve fit was set to 0, and the top value was constrained to a maximum of 100 to indicate the maximum possible effect of the drug. […] Absolute EC and CC values for % αSMA reduction and percent cytotoxicity were quantified using the top, bottom, EC50/CC50, and hillslope values estimated from the curve fits generated in GraphPad Prism (GraphPad Software Inc).

male VICs [2] = tested on: male VICs
Method: as §1, §2

female VICs [3] = experiment: percent αSMA GMI reduction by immunofluorescent staining, female VICs on TCPS; type: cell-based, pig; conditions: for reduction in αSMA GMI, initial screen: female VICs on TCPS, dosing range 10^-7 to 10^3 μM; for Percent αSMA reduction, Average: female VICs, TCPS, n = 3 wells
Method: (§3) VICs were collected by aspirating off spent media, washing with PBS (Sigma-Aldrich) for 1 min, then incubating with 1× trypsin (Life Technologies) for 3 min. Trypsin was neutralized with an equal volume of 15% FBS growth media and centrifuged for 5 min at 0.2g. The media solution was then aspirated, and VICs were resuspended with 1 ml of 1% FBS media. VICs were counted with an automated hemocytometer to calculate the volume of cell solution to add to each well to seed at 6400 cells per well (20,000 cells/cm^2) for TCPS and hydrogel experiments. […] For each inhibitor, the nonlinear regression tool in Prism was used to estimate the response against the agonist by fitting the top, bottom, EC50/CC50, and hillslope to each dataset.

[4] = ref (79) Irosustat, (80) Losartan, cited from earlier work
male VICs [5] = experiment: percent αSMA GMI reduction by immunofluorescent staining, male VICs on TCPS; type: cell-based, pig; conditions: for reduction in αSMA GMI, initial screen: male VICs on TCPS, dosing range 10^-7 to 10^3 μM; for Percent αSMA reduction, Average: male VICs, TCPS, single drug at L2 dose, n = 3 wells
Method: as §3

female VICs [6] = experiment: percent αSMA GMI reduction, female VICs on soft hydrogels; type: cell-based, pig; conditions: n = 3 gels
Source text: (§4) Last, we tested the ability of […]-designed combinations to prevent myofibroblast activation in VICs cultured on other substrates beyond stiff hydrogels. […] Six male-optimized combinations were effective in preventing male VIC myofibroblast activation (Fig. 7K). […] Single-drug monotherapies used in the top male and female drug combinations were confirmed to have a minimal effect on male and female VIC αSMA GMI on soft hydrogels (table S14). […] After aspirating off the spent media, VICs were resuspended in 5 ml of fresh 15% FBS media and seeded on T25 Falcon tissue culture-treated flasks (Thermo Fisher Scientific). […] VICs were collected by aspirating off spent media, washing with PBS (Sigma-Aldrich) for 1 min, then incubating with 1× trypsin (Life Technologies) for 3 min. Trypsin was neutralized with an equal volume of 15% FBS growth media and centrifuged for 5 min at 0.2g. The media solution was then aspirated, and VICs were resuspended with 1 ml of 1% FBS media. VICs were counted with an automated hemocytometer to calculate the volume of cell solution to add to each well to seed at 6400 cells per well (20,000 cells/cm^2) for TCPS and hydrogel experiments. […] For each inhibitor, the nonlinear regression tool in Prism was used to estimate the response against the agonist by fitting the top, bottom, EC50/CC50, and hillslope to each dataset.

male VICs [7] = experiment: percent αSMA GMI reduction, male VICs on soft hydrogels; type: cell-based, pig; conditions: single drug at L2 dose, n = 3 gels
Source text: as §4

female VICs [8] = experiment: percent αSMA GMI reduction, female VICs on stiff hydrogels; type: cell-based, pig; conditions: for EC1 / EC2: from dose response curves; for Percent αSMA reduction, Average: n = 3-4 gels
Method: (§5) Glass-bottom 96-well plates (Cellvis) were placed in an autoclave jar with a scintillation vial containing 100 μl of mercaptopropyltrimethoxysilane (MPTS; Sigma-Aldrich). The autoclave jar was then lightly sealed and placed inside an oven at 60°C for a minimum of 6 hours. The autoclave jar was opened in a chemical fume hood, and the vapor-deposited well plate was stored for up to 2 hours until ready for use. Eight-arm 20-kDa PEG-norbornene (PEG-Nb) was formed as outlined previously ([76]). A 7% (w/v) PEG-Nb hydrogel precursor solution was formed by combining phosphate-buffered saline (PBS), 20-kDa PEG-Nb at a 0.98:1 thiol-to-ene ratio, 5-kDa PEG-dithiol (Jenkem), CRGDS cell binding motif (Bachem), and lithium phenyl-2,4,6-trimethyl-benzoylphosphinate (Thermo Fisher Scientific). An EPMotion 5073l automated liquid handling system (Eppendorf) was used to pipet 7 μl of the hydrogel precursor solution into the center of each well of the vapor-deposited 96-well glass-bottom plate. The well plate with the hydrogel precursor solution was then stamped using a custom 96-well plate stamp, inverted, and cured under ultraviolet light at 10 mW/cm^2 for 3 min to induce gelation. The stamp was carefully removed by hand, and the newly formed gels were sterilized with a solution of 5% isopropyl alcohol (Thermo Fisher Scientific) in PBS for 20 min. Gels were then washed twice with PBS and stored in VIC media composed of Media199 (Life Technologies), 1% fetal bovine serum (FBS, Life Technologies), amphotericin B (1 μg/ml; Thermo Fisher Scientific), penicillin (50 U/ml; Sigma-Aldrich), and streptomycin (50 μg/ml; Sigma-Aldrich). Last, the hydrogels were placed in an incubator at 37°C with 5% carbon dioxide for up to 24 hours until experimental use.
(§6) Media changes were performed every 24 to 48 hours until cells reached ~80% confluency. […] The media solution was then aspirated, and VICs were resuspended with 1 ml of 1% FBS media. VICs were counted with an automated hemocytometer to calculate the volume of cell solution to add to each well to seed at 6400 cells per well (20,000 cells/cm^2) for TCPS and hydrogel experiments. For all experiments, VICs were seeded with 1% FBS media containing the specified drug doses and incubated at 37°C with 5% carbon dioxide with media changes every 48 to 72 hours if needed.
(§7) Drug stock solutions were discarded after two thaw cycles or after 10 months of storage. For all experiments, drug dilutions were calculated and added to VIC media to ensure that total DMSO levels remained below 1% for cytotoxicity and αSMA reduction curve fitting experiments and below 0.3% for drug combination experiments.
as §1
(§8) Curve fitting for VIC percent αSMA reduction and cytotoxicity was performed using GraphPad Prism 10 (GraphPad Software Inc). For each inhibitor, the nonlinear regression tool in Prism was used to estimate the response against the agonist by fitting the top, bottom, EC50/CC50, and hillslope to each dataset. After 2 days of culture, the percent αSMA reduction was calculated using the average αSMA gradient mean intensities of the control relative to the drug condition using Eq. 1 %αSMA reduction=100×(Control−Drug Condition/Control) (1)

male VICs [9] = experiment: percent αSMA GMI reduction, male VICs on stiff hydrogels; type: cell-based, pig; conditions: male VICs; for EC1 / EC2: from dose response curves; for Percent αSMA reduction, Average: n = 3-4 gels
Method: as §5, §6, §7, §1, §8

[10] = female VICs on stiff gels, n = 3 gels
[11] = female VICs, stiff hydrogels, from dose response curves
[12] = male VICs on stiff gels, n = 3 gels
[13] = male VICs, stiff hydrogels, from dose response curves

Row | SMILES | CC25 (percent cytotoxicity) (female VICs [1]; [10]) | CC1 (female VICs [1]; [11]) | CC2 (female VICs [1]; [11]) | CC25 (percent cytotoxicity) (male VICs [2]; [12]) | CC1 (male VICs [2]; [13]) | CC2 (male VICs [2]; [13]) | reduction in αSMA GMI, initial screen (female VICs [3]) | reduction in αSMA GMI, initial screen (male VICs [5]) | Percent αSMA reduction, Average (male VICs [5]) | Percent αSMA reduction, Average (male VICs [7]) | EC1 (female VICs [8]) | EC2 (female VICs [8]) | Percent αSMA reduction, Average (female VICs [8]; single drug at level 1 dose) | Percent αSMA reduction, Average (female VICs [8]; single drug at level 2 dose) | EC1 (male VICs [9]) | EC2 (male VICs [9]) | Percent αSMA reduction, Average (male VICs [9]; single drug at level 1 dose) | Percent αSMA reduction, Average (male VICs [9]; single drug at level 2 dose) | Percent αSMA reduction, Average (female VICs [3]; single drug at L2 dose) | Percent αSMA reduction, Average (female VICs [6]; single drug at L2 dose) | other results
1 | NS(=O)(=O)Oc1ccc2c3c(c(=O)oc2c1)CCCCC3 [Irosustat] | 109 µM | 50.2 µM | 57.9 µM | 125 µM | 48.5 µM | 58.7 µM | > 25% | > 25% | -1.15% | -10.38% | 74.4 µM | 84.7 µM | 9.62% | -0.55% | 92.6 µM | 106.3 µM | 0.84% | 0.67% | – | – | Percent αSMA reduction, Average (female VICs [3]; single drug at L1 dose): 1.88%; Cmax ([4]; read-out: 5% Cmax, 5% of Cmax from FDA documents and clinical studies): 10.6 nM; Cmax ([4]; read-out: 10% Cmax, 10% of Cmax from FDA documents and clinical studies): 21.2 nM; Percent αSMA reduction, Average (female VICs [6]; single drug at L1 dose): 4.80%
2 | O=C(COCC(=O)Nc1ccc(Cl)cc1C(=O)O)Nc1cccc(-c2ccoc2)c1 [TM5441] | 191 µM | 19.7 µM | 31.1 µM | 51.3 µM | 18.9 µM | 21.9 µM | > 25% | > 25% | 18.36% | 13.16% | 24.8 µM | 33.6 µM | 1.52% | -7.64% | 4.96 µM | 9.3 µM | -1.46% | 2.18% | 8.37% | 17.16% | –
3 | O=c1cc(N2CCOCC2)oc2c(-c3ccccc3)cccc12 [LY294002] | – | – | – | – | – | – | > 25% | > 25% | -4.91% | 13.23% | 8.63 µM | 13.4 µM | 9.50% | 2.75% | 12.8 µM | 17.6 µM | 6.86% | 5.50% | -8.32% | 11.35% | CC1 (female VICs [1]; female, pig): 17.7 µM; CC2 (female VICs [1]; female, pig): 21.3 µM; CC25 (percent cytotoxicity) (female VICs [1]; female, pig): 45.2 µM; CC1 (male VICs [2]; male, pig): 21.5 µM; CC2 (male VICs [2]; male, pig): 25.2 µM; CC25 (percent cytotoxicity) (male VICs [2]; male, pig): 46.9 µM
4 | Fc1ccc(Cl)cc1-c1nc(Nc2ccncc2)c2nccnc2n1 [SD-208] | 70.1 µM | 34.8 µM | 40.1 µM | 58.9 µM | 26.6 µM | 31.1 µM | > 25% | > 25% | 7.80% | 5.58% | 0.0061 µM | 0.0275 µM | 4.19% | 8.81% | 0.0582 µM | 0.188 µM | 14.60% | 0.63% | 3.05% | 9.37% | –
